Measured values taken from patent US7632816B2, “Treatment of Alzheimer amyloid deposition” (New York University, priority 2003, dated 2009).
“Also recorded” adds a separate entry of the source. Square brackets hold non-standard residues; d marks the D form. Peptide text beside a SMILES is read from it.

Experiments:
Aβ1-42 [1] = molecular target: T1, Aβ1-42 (Homo sapiens, UniProt P05067); experiment: Thioflavin-T assay: peptide alone added to Aβ1-42 (no apoE); type: biochemical; details: same concentration of Aβ12-28P
T1 construct: made in house; host or cells: chemical peptide synthesis

Aβ1-42 [2] = experiment: Aβ1-42 toxicity in SK-N-SH cells with peptide added without apoE, MTT assay; type: cell-based, human
Description: All experiments were run in triplicate. The results from cell culture neurotoxicity studies were evaluated by one-way analysis of variance, followed by a Dunnett's test as a post hoc analysis.

apoE4 = molecular target: T2, apoE4 (Homo sapiens, UniProt P02649, C130R); experiment: Competitive inhibition ELISA: apoE4 binding to immobilized Aβ1-40
T2 construct: made in house; host or cells: primary forebrain astrocytes of GFAP-human apoE4 transgenic mice
Description: Lipidated apoE4 100 nM was preincubated with an increasing concentration of Aβ12-28P (0-400 nM) in 10 mM Tris buffer pH 7.4 for three hours at 37° C., and then added to the plate (100 μL/well). […] The color reaction was developed with a 3,3,5,5-tetramethybenzidine substrate (Sigma, St. Louis, Mo.), stopped with 2M sulfuric acid, and optical density (“OD”) was read at 450 nm on a 7520 Microplate Reader (Cambridge Technology, Watertown, Mass.). Non-specific binding was determined using bovine serum albumin and/or omitting the apoE4 in the assay. OD values were converted to percentages with the binding of apoE4 in the absence of inhibitor being considered as 100%. The mean±standard deviation from three independent duplicate experiments was plotted in FIG. 3 and analyzed by a one site competition nonlinear regression fit algorithm using GraphPad Prism v4.0 (GraphPad Software, San Diego, Calif.).

[3] = In vivo toxicity test in wild type mice; details: 1 mg i.p. three times per week for four weeks
Description: (§1) Initial testing of Aβ12-28P toxicity in vivo was performed on five wild type C57BL6 mice which received intraperitoneal (“i.p.”) injections of 1 mg of Aβ12-28P diluted in 0.5 mL of sterile PBS three times per week for four weeks. […] Signs of toxicity included change in body weight, physical appearance, measurable clinical signs, unprovoked behavior and response to external stimuli were not noticed. After one month, the animals were sacrificed and samples were taken from the brain, liver, gut, spleen, kidney and heart, for hematoxylin and eosin staining. […] The first administration of Aβ12-28P was begun at four months of age, at which time the APP^K670N/M671L/PS1^M146L mice already have significant numbers of Aβ lesions (Wengenack et al., “Quantitative Histological Analysis of Amyloid Deposition in Alzheimer's Double Transgenic Mouse Brain,” Neurosci. 101:939-944 (2000); McGowan et al., “Amyloid Phenotype Characterization of Transgenic Mice Overexpressing Both Mutant Amyloid Precursor Protein and Mutant Presenilin 1 Transgenes,” Neurobiol. Dis. 6:231-244 (1999), which are hereby incorporated by reference in their entirety). The treatment was continued for four weeks (1 mg i.p. three times per week). Control age-matched APP^K670N/M671L/PS1^M146L mice received injections with vehicle only. There were six Aβ12-28P treated and six vehicle treated APP^K670N/M671L/PS1^M146L mice in this study.

[4] = tested on: APP^K670N/M671L/PS1^M146L double Tg mice; experiment: Aβ deposition in APP/PS1 double transgenic mice, 6E10 and Thioflavin-S histology with stereology; type: in vivo; details: for Aβ load lower compared to vehicle Tg controls: 1 mg i.p. three times per week, four weeks
Description: as §1
Animals were sacrificed a week after the last injection with an overdose of sodium pentobarbital (150 mg/kg i.p.) and transcardially perfused with 20 ml of heparinized 0.1M PBS followed by 4% buffered paraformaldehyde. The brain was dehydrated using increasing concentrations of sucrose in 0.1M PBS, pH 7.4 and sectioned using a freezing microtome (Leica SM2400) (Nussloch, Germany). Serial coronal sections (40 μm thick) were collected in 10 series. Each of the series contained a complete set of cross-sections along the rostro-caudal axis of the brain spaced by 400 μm. […] For Aβ immunohistochemistry, endogenous peroxidase activity was quenched in 0.3% H2O2 for 30 min and incubation with mAb 6E10 at 1:1000 dilution was followed by an anti-mouse IgG biotinylated secondary antibody (1:2000) and avidin-horseradish peroxidase complex (Vectastain MOM kit) (Vector Laboratories, Burlingame, Calif.). Sections were developed using 3,3′-diaminobenzidine kit with nickel ammonium sulfate (Vector Laboratories, Burlingame, Calif.).
Aβ deposition were quantified on one randomly selected section series which was stained with 6E10 mAb. Aβ deposits were measured in the brain cortex and in the hippocampus using a random, unbiased sampling scheme.

T2 sequence (P02649 19-317 C130R): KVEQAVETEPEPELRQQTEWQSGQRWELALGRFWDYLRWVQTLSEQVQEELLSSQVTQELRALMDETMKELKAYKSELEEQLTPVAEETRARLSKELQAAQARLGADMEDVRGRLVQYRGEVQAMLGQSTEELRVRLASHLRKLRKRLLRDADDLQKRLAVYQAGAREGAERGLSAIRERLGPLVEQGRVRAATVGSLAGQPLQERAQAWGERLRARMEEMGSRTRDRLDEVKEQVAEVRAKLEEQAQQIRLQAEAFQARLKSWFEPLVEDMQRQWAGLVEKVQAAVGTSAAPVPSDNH
T1 sequence (P05067 672-713): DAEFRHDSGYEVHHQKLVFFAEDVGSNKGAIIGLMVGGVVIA

CC(=O)N[C@@H](C(=O)N[C@H](Cc1c[nH]cn1)C(=O)N[C@H](Cc1c[nH]cn1)C(=O)N[C@H](CCC(N)=O)C(=O)N[C@H](CCCCN)C(=O)N[C@H](CC(C)C)C(=O)N1CCC[C@@H]1C(=O)N[C@H](Cc1ccccc1)C(=O)N[C@H](Cc1ccccc1)C(=O)N[C@H](C)C(=O)N[C@H](CCC(=O)O)C(=O)N[C@H](CC(=O)O)C(=O)N[C@@H](C(=O)NCC(=O)N[C@H](CO)C(=O)N[C@H](CC(N)=O)C(=O)N[C@H](CCCCN)C(N)=O)C(C)C)C(C)C [Aβ12-28P] (Ac-[dV][dH][dH][dQ][dK][dL][dP][dF][dF][dA][dE][dD][dV]G[dS][dN][dK]-NH2)
effect of peptide alone on Aβ1-42 fibrillogenesis (Aβ1-42 [1]): did not have any significant effect
cell viability, Aβ1-42 incubated with peptide (Aβ1-42 [2]; 10 μmol/L Aβ1-42 with 10 μmol/L peptide): Much more striking improvement in cell viability
cell viability, Aβ1-42 incubated with peptide without apoE (Aβ1-42 [2]; Aβ1-42 100 μmol/L, peptide 0.5 μmol/L, six days): slightly increased cell viability
IC50 (apoE4; 100 nM lipidated apoE4 preincubated with 0-400 nM peptide, one-site competition fit): 36.7 nM
Ki (apoE4; read-out: inhibition constant (KI)): 11.4 nM
survival and condition ([3]; observed two more weeks, wild type C57BL6 mice): all remained alive and well
hematoxylin and eosin histology of brain, heart, liver, gut, spleen, kidneys ([3]; wild type mice): did not reveal any pathology
signs of toxicity (body weight, physical appearance, clinical signs, unprovoked behavior, response to external stimuli) ([3]; wild type mice): No changes were noted; also recorded: not noticed
reduction in the number of medium-size plaques ([4]; cortex, >500 μm^2 and <1000 μm^2, p<0.05): 53.5%
reduction in the number of large plaques ([4]; cortex, >1000 μm^2, non-significant): 44%
reduction in the density of small plaques ([4]; cortex, cross-section area <500 μm^2, p<0.001): 52.8%
Aβ load lower compared to vehicle Tg controls ([4]; cortex, p=0.0047): 63.3%
density of fibrillar Aβ plaques on Thioflavin-S staining ([4]; four weeks of treatment): reduction in the density of Aβ plaques was also seen
reduction in the density of large plaques ([4]; hippocampus, p<0.05): 65.4%
reduction in the density of medium-size plaques ([4]; hippocampus, p<0.05): 48.6%
reduction in the density of small plaques ([4]; hippocampus, p<0.05): 37.6%
Aβ load lower compared to vehicle Tg controls ([4]; hippocampus, p=0.0048): 61.9%
reduction in the numerical density of Aβ plaques ([4]; hippocampus, p=0.0047): 46.3%
reduction in the numerical density of Aβ plaques ([4]; neocortex, p=0.0002): 60.1%
reduction in Aβ load and plaque density versus control Tg animals, in words ([4]; one month of administration): over two fold; also recorded: significant reduction
